Laboratory results reported in patent US8791155B2, “Chroman derivatives” (Edison Pharmaceuticals, Inc., priority 2003, dated 2014).

Target: T1, human recombinant 5-lipoxygenase (Homo sapiens, UniProt P09917)
T1 construct: purchased Cayman 60402
T1 sequence (P09917 1-674): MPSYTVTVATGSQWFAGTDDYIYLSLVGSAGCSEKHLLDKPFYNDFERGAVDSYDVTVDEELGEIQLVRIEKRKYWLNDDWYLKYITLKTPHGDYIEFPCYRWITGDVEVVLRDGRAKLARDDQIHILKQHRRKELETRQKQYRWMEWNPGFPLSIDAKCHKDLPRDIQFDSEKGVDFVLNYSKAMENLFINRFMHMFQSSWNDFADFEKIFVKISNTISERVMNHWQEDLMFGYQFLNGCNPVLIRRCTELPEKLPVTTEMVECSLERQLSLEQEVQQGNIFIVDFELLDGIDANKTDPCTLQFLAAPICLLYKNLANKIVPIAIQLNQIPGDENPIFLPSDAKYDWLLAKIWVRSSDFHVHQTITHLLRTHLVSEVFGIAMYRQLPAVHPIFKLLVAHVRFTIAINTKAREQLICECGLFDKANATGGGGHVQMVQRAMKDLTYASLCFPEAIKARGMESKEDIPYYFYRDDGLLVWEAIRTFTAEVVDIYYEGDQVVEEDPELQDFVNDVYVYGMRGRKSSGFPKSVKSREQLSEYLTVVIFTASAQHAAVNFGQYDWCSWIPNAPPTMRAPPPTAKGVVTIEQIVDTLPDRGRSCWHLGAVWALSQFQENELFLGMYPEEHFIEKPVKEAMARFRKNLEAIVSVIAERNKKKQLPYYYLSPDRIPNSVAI
Test: 5-Lipoxygenase enzyme assay
Type: biochemical
Conditions: 70 μM arachidonic acid, pH 7.4, 10 minute incubation; read-out: IC50, inhibition of 5-Lipoxygenase
Source text: In vitro evaluation of the ability of a composition to inhibit the enzymes 5-lipoxygenase, 15-lipoxygenase, or 12/15 lipoxygenase as described in Walidge, N. B. et al Anal. Biochem., 231: 354-358 (1995) using a high throughput colorimetric method; as well as in vitro evaluation of inhibiting LTB4 is described in Examples.
This procedure was used for measuring the enzymatic activity of human recombinant 5-lipoxygenase using a colorimetric method based on the ferric oxidation of xylenol orange.
• 96 well flat bottom microfilter plates (VWR, Catalog #62402-933 9295) • Lipoxygenase screening assay buffer (Cayman, Catalog #760710) • Human recombinant 5-lipoxygenase (Cayman, Catalog #60402) • Arachidonic Acid (Sigma, Catalog #A3555) • Xylenol orange tetrasodium salt (Aldrich, Catalog #227854) • Iron (II) sulfate heptahydrate (Sigma, Catalog #F7002) • Sulfuric acid (95-98%) [18M]—Methanol Procedure
Human recombinant 5-lipoxygenase (Cayman Cat #60402) was used in this assay. The test compound and/or vehicle was added to 0.51-1 5-lipoxygenase in 50 mM Tris-HCl buffer, pH 7.4. The reaction was initiated by addition of 70 μM arachidonic acid in Tris-HCl buffer, pH 7.4, and terminated after a 10 minute incubation at room temperature by addition of FOX reagent (25 mM sulphuric acid, 100 μM xylenol orange, 100 μM iron (II) sulphate, methanol:water 9:1). The yellow color of acidified xylenol orange was converted to a blue color by the lipid hydroperoxide-mediated oxidation of Fe 2+ ions and the interaction of the resulting Fe 3+ ions with the dye. The complex was allowed to form during a 1 hour incubation at room temperature with shaking. Absorbance of the Fe 3+ complex was then measured at […] using a spectrophotometer.
Negative controls contained enzyme during the incubation step but substrate was not added until after the FOX reagent.
Compounds were screened at 5 concentrations in triplicate starting at 10 μM

Row | Structure (SMILES) | IC50
1 | C=CCSCc1c(O)c(C)c(C)c2c1CCC(C)(C)O2 [5-Allylsulfanylmethyl-2,2,7,8-tetramethyl-chroman-6-ol] | < 1000 nM
2 | Cc1c(C)c2c(c(C)c1O)CCC(C)(C=C(Br)Br)O2 (centres unmarked) [2-(2,2-Dibromo-vinyl)-2,5,7,8-tetramethyl-chroman-6-ol] | < 1000 nM
